Reference: PMC3731256, “Optimization of Substituted 6-Salicyl-4-Anilinoquinazoline Derivatives as Dual EGFR/HER2 Tyrosine Kinase Inhibitors” (PLoS ONE, 2013)

Legend:
human EGFR = target: T1, human EGFR (Homo sapiens, UniProt P00533); assay: EGFR kinase assay ([γ-32P] ATP, poly-Glu-Tyr); type: biochemical
T1 construct: the cytoplasmic domain (amino acids 669-1210) of human EGFR; FLAG (DYKDDDD) (N); made in house
Procedure: The expressed HER2 kinase and EGFR kinase were purified by anti-FLAG M2 affinity gel (Sigma-Aldrich, USA). The HER2 and EGFR kinase assays were performed using radiolabeled [γ-^32P] ATP (GEHealthcare, USA) in 96-well plates. The kinase reactions were performed in 50 mmol/L Tris-HCl, pH7.5, 5 mmol/L MnCl2, 0.01% Tween-20 and 2 mmol/L DTT containing 0.9 μCi of [γ-^32P] ATP per reaction, 50 μmol/L ATP, 5 μg/mL poly-Glu-Tyr (4:1) and 0.25 μg/mL of purified Her2 or EGFR cytoplasmic domain in a total volume of 50 μL. […] Kinase reactions were initiated by adding ATP. After the kinase reaction incubated for 10 minutes at room temperature, reactions were terminated by the addition of 10% (final concentration) trichloroacetic acid. The [γ-^32P]-phosphorylated proteins were filtered in a harvest plate (Millipore, USA) with a cell harvester (PerkinElmer, USA) and washed free of [γ-^32P] ATP with 3% phosphoric acid. The plates were dried, followed by the addition of 25 μL of MicroScintO (PerkinElmer, USA). Radioactivity was counted by a Topcount scintillation counter (PerkinElmer, USA).

A549 cells = assay: Antiproliferation WST-1 assay, A549; type: cell-based, human; details: WST-1 assay; A549 carcinomic human alveolar basal epithelial cell; read-out: Cellular IC50, A549
Procedure: (§1) WST-1 is better than MTT for analyzing cell proliferation, because it can be reduced to soluble formazan by dehydrogenase in mitochondria and has little toxicity to cells. Cell proliferation was determined using WST-1 dye (Beyotime Inst Biotech, China) according to manufacture’s instructions. Brieﬂy, 5 × 10^3 cells per well were seeded in a 96-well plate, grown at 37 ℃ for 24 h, and then placed in serum-starved conditions for a further 6 h. Subsequently, cells were treated with compounds (Table 1) at increasing concentrations in the presence of 10% FBS for 24 or 48h. After 10 µL WST-1 dye was added to each well, cells were incubated at 37 ℃ for 2 h and the absorbance was ﬁnally determined at 450 nm using a microplate reader.

H1781 cells = assay: Antiproliferation WST-1 assay, H1781; type: cell-based; details: NCI-H1781, NSCLC, HER-2 G776ins V_G/C, lapatinib-resistant
Procedure: as §1

Aurora B = target: T2, Aurora B (Homo sapiens, UniProt Q96GD4); assay: Serine/threonine kinase profiling ([γ-32P] ATP), Aurora B; type: biochemical; details: ATP concentration = Km
T2 construct: 6xHis (N); made in house; host or cells: baculovirus expression system
T2 sequence (Q96GD4 whole entry): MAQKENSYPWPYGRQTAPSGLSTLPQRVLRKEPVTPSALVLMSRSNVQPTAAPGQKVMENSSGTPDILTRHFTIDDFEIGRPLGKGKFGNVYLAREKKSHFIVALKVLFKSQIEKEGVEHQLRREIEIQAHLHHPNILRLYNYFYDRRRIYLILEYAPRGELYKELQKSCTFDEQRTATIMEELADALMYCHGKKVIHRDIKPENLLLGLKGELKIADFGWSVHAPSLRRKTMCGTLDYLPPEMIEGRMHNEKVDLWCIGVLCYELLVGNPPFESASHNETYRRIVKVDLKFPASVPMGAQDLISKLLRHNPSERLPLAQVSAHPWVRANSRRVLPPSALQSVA
Procedure: Assays for 4 serine/threonine kinases using radio labeled [γ-^32P] ATP (GE Healthcare, Piscataway, NJ) were performed in 96 well plates. Mitogen-activated protein kinase p38α (p38α), was expressed as N-terminal FLAG-tagged protein using a baculovirus expression system. Aurora-A and -B were expressed as N-terminal 6xHis tagged protein using a baculovirus expression system. CDK2/CycA was expressed as C-terminal 6His-tagged CDK2, and N-terminal GST-tagged Cyclin A protein using a baculovirus expression system.
The reaction conditions were optimized for each kinase: p38α (100 ng/well of enzyme, 1 μg/well of MBP (Wako Pure Chemical Ind., Osaka, Japan), 0.1 μCi/well of [γ-^32P] ATP, 60 min reaction at 30 ℃); Aurora-A and -B (50 ng/well of enzyme, 30 μM of Aurora substrate peptide, 0.2 μCi/well of [γ-^32P] ATP, 60 min reaction at room temperature); CDK2/CycA (1.8 mUnits/well of enzyme, 1 μg/well of Histone H1 (Calbiochem), 0.2 μCi/well of [γ-^32P] ATP, 20 min reaction at room temperature).
All the four enzyme reactions were performed in 25 mM HEPES, pH 7.5, 10 mM magnesium acetate, 1 mM dithiothreitol and 0.5 μM ATP containing optimized concentration of enzyme, substrate and radiolabeled ATP as described above in a total volume of 50 μl. […] The radioactivity was counted by a TopCount scintillation counter (PerkinElmer).

T1 sequence (P00533 669-1210): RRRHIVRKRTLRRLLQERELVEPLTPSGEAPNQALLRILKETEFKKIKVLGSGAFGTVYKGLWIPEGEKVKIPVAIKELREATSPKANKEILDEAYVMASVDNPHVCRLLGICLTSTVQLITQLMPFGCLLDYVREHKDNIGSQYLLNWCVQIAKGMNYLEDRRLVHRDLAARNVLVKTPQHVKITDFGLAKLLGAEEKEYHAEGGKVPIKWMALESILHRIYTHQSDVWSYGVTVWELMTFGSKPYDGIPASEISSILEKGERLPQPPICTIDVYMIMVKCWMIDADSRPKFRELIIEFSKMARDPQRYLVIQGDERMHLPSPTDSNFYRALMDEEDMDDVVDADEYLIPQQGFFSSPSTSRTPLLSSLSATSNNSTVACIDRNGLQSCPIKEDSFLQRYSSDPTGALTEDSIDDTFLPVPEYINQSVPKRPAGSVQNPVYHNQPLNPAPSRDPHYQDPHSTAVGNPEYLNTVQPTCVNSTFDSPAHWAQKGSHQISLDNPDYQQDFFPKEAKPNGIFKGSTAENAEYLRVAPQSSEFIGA

## O=C(Nc1ccc2ncnc(Nc3cccc(Br)c3)c2c1)c1ccc(C(F)(F)F)cc1O [Compound 21, N-(4-(3-bromophenylamino)quinazolin-6-yl)-2-hydroxy-4-(trifluoromethyl)benzamide]
Human EGFR; converted from IC50 by online calculator
  pIC50 EGFR: 6.92
Human EGFR; phosphorylation of poly-Glu-Tyr copolymer, mean, >1 determination, read-out: Enzyme activity IC50 against EGFR kinase
  IC50: 120 ± 12 nM
A549 cells
  IC50: 1640 ± 27 nM
H1781 cells
  IC50: 770 ± 34 nM
Aurora B
  IC50: 63700 ± 1020 nM
